Laboratory results published in PubChem BioAssay (NCI).
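Step 1: Grow cells in 96-well plates. Step 2: Expose to compound for 48 hours at 5 concentrations. Step 3: Interpolate endpoints linearly; if unreached, use highest concentration. At the GI50, growth is halved. TGI denotes the concentration required for complete inhibition of growth.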

Legend:
Assay in all cases: NCI-60 cell line screen, 48 h
[1] = system: NCI/ADR-RES ovarian
[2] = system: SF-268 CNS
[3] = system: UACC-62 melanoma
[4] = system: SK-MEL-2 melanoma
[5] = system: DU-145 prostate
[6] = system: SW-620 colon
[7] = system: RPMI-8226 leukemia
[8] = system: OVCAR-8 ovarian
[9] = system: CAKI-1 renal
[10] = system: SK-MEL-28 melanoma
[11] = system: K-562 leukemia
[12] = system: OVCAR-5 ovarian
[13] = system: T-47D breast
[14] = system: HCC-2998 colon
[15] = system: U251 CNS
[16] = system: SF-295 CNS
[17] = system: MOLT-4 leukemia
[18] = system: HCT-116 colon
[19] = system: MALME-3M melanoma
[20] = system: MDA-MB-435
[21] = system: NCI-H460 lung
[22] = system: OVCAR-3 ovarian
[23] = system: HS 578T breast
[24] = system: LOX IMVI melanoma
[25] = system: RXF 393 renal
[26] = system: CCRF-CEM leukemia
[27] = system: HOP-62 NSCLC
[28] = system: OVCAR-4 ovarian
[29] = system: SK-OV-3 ovarian
[30] = system: ACHN renal
[31] = system: SF-539 CNS
[32] = system: SK-MEL-5 melanoma
[33] = system: SNB-19 CNS
[34] = system: HL-60(TB) leukemia
[35] = system: SR leukemia
[36] = system: HT29 colon
[37] = system: HCT-15 colon
[38] = system: A498 renal
[39] = system: EKVX NSCLC
[40] = system: TK-10 renal
[41] = system: SN12C renal
[42] = system: PC-3 prostate
[43] = system: UO-31 renal
[44] = system: UACC-257 melanoma
[45] = system: COLO 205 colon
[46] = system: HOP-92 NSCLC
[47] = system: KM12 colon
[48] = system: NCI-H226 lung
[49] = system: NCI-H23 lung
[50] = system: MDA-MB-231 breast
[51] = system: BT-549 breast
[52] = system: MCF7 breast
[53] = system: SNB-75 CNS
[54] = system: 786-0 renal
[55] = system: IGROV1 ovarian
[56] = system: NCI-H522 lung

N#Cc1nc(C#N)c(Sc2ccccc2)c(Sc2ccccc2)c1Sc1ccccc1
GI50 [1]: 504 nM | TGI [1]: > 100000 nM | GI50 [2]: 331 nM | TGI [2]: 1030 nM | GI50 [3]: 1370 nM | TGI [3]: 3200 nM | GI50 [4]: 2170 nM | TGI [4]: > 21600 nM | GI50 [5]: 667 nM | TGI [5]: 2880 nM | GI50 [6]: 232 nM | TGI [6]: 500 nM | GI50 [7]: 638 nM | TGI [7]: > 28300 nM | GI50 [8]: 287 nM | TGI [8]: 911 nM | GI50 [9]: 1220 nM | TGI [9]: > 100000 nM | GI50 [10]: 1480 nM | TGI [10]: 2890 nM | GI50 [11]: 1550 nM | TGI [11]: > 29900 nM | GI50 [12]: 2340 nM | TGI [12]: 4680 nM | GI50 [13]: 584 nM | TGI [13]: 2480 nM | GI50 [14]: 2240 nM | TGI [14]: 4660 nM | GI50 [15]: 510 nM | TGI [15]: 1860 nM | GI50 [16]: 2750 nM | TGI [16]: > 29100 nM | GI50 [17]: 317 nM | GI50 [18]: 301 nM | GI50 [19]: 1480 nM | TGI [19]: 5040 nM | GI50 [20]: 684 nM | TGI [20]: 7170 nM | GI50 [21]: 2350 nM | TGI [21]: > 27600 nM | GI50 [22]: 1450 nM | TGI [22]: 2890 nM | GI50 [23]: 463 nM | TGI [23]: > 100000 nM | GI50 [24]: 170 nM | TGI [24]: 344 nM | GI50 [25]: 980 nM | TGI [25]: 3220 nM | GI50 [26]: 417 nM | TGI [26]: > 100000 nM | TGI [27]: > 20000 nM | GI50 [28]: 2740 nM | TGI [28]: > 27800 nM | GI50 [29]: 3270 nM | TGI [29]: 9010 nM | GI50 [30]: 395 nM | TGI [30]: 1790 nM | GI50 [31]: 399 nM | TGI [31]: 1310 nM | GI50 [32]: 1310 nM | TGI [32]: 2690 nM | GI50 [33]: 2500 nM | TGI [33]: 5900 nM | GI50 [34]: 1880 nM | TGI [34]: > 29500 nM | GI50 [35]: 305 nM | TGI [35]: > 100000 nM | GI50 [36]: 407 nM | GI50 [37]: 574 nM | TGI [37]: 3210 nM | GI50 [38]: 2720 nM | TGI [38]: 7050 nM | GI50 [39]: 1250 nM | TGI [39]: > 100000 nM | GI50 [40]: 502 nM | TGI [40]: 3430 nM | GI50 [41]: 191 nM | TGI [41]: 378 nM | GI50 [42]: 753 nM | TGI [42]: 21500 nM | GI50 [43]: 415 nM | TGI [43]: 1080 nM | GI50 [44]: 1370 nM | TGI [44]: 2940 nM | GI50 [45]: 719 nM | TGI [45]: 2030 nM | GI50 [46]: 2520 nM | TGI [46]: 20900 nM | GI50 [47]: 1670 nM | TGI [47]: 3260 nM | GI50 [48]: 2420 nM | GI50 [49]: 360 nM | TGI [49]: 2350 nM | GI50 [50]: 296 nM | TGI [50]: 773 nM | GI50 [51]: 210 nM | TGI [51]: 4270 nM | GI50 [52]: 565 nM | TGI [52]: 2410 nM | GI50 [53]: 2420 nM | TGI [53]: > 29300 nM | GI50 [54]: 392 nM | GI50 [55]: 732 nM | TGI [55]: 2300 nM | GI50 [56]: 208 nM | TGI [56]: 645 nM
